Measured values reported in ChEMBL document CHEMBL3872249, “Computer design, synthesis, and bioactivity analyses of drugs like fingolimod used in the treatment of multiple sclerosis” (Bioorg Med Chem, 2017).
Active and inactive are the calls of the source. No cut-off for these calls is given here.

Key:
[1] = biological target: Sphingosine 1-phosphate receptor 1 (Homo sapiens) (UniProt P21453); assay: Agonist activity at sphingosine-1-phosphate receptor in human SH-SY5Y cells assessed as increase in cAMP level at EC10 by direct immunoassay; format: functional, cell-based
Chain of Sphingosine 1-phosphate receptor 1 (Homo sapiens) (P21453 whole entry): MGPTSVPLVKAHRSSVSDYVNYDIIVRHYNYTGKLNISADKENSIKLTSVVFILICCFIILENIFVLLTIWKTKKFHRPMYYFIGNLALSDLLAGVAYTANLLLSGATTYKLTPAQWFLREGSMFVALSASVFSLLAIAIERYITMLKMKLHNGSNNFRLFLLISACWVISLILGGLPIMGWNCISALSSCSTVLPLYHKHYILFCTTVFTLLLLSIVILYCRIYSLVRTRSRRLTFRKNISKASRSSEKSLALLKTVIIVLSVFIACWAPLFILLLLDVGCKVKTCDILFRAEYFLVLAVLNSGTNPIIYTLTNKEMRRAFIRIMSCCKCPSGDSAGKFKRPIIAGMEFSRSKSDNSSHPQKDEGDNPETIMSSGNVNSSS

[2] = Cytotoxicity against human SH-SY5Y cells measured after 24 hrs by crystal-violet staining based assay; format: toxicity, cell-based
[3] = Cytotoxicity against human SK-N-SH cells measured after 24 hrs by crystal-violet staining based assay; format: toxicity, cell-based
[4] = biological target: Sphingosine 1-phosphate receptor 1 (Homo sapiens) (UniProt P21453); assay: Agonist activity at sphingosine-1-phosphate receptor human SK-N-SH cells assessed as increase in cAMP level at EC10 by direct immunoassay; format: functional, cell-based
[5] = biological target: Sphingosine 1-phosphate receptor 1 (Homo sapiens) (UniProt P21453); assay: Agonist activity at sphingosine-1-phosphate receptor in human U118MG cells assessed as increase in cAMP level at EC10 by direct immunoassay; format: functional, cell-based; details: U-118-MG
[6] = system: SH-SY5Y; assay: Effect on PMP22 mRNA expression in human SH-SY5Y cells at EC10 by qPCR method relative to beta-actin; format: functional
[7] = system: SH-SY5Y; assay: Effect on CCL2 mRNA expression in human SH-SY5Y cells at EC10 by qPCR method relative to beta-actin; format: functional
[8] = system: SH-SY5Y; assay: Effect on CXCL10 mRNA expression in human SH-SY5Y cells at EC10 by qPCR method relative to beta-actin; format: functional
[9] = system: SH-SY5Y; assay: Effect on IL10 mRNA expression in human SH-SY5Y cells at EC10 by qPCR method relative to beta-actin; format: functional
[10] = system: SH-SY5Y; assay: Effect on IL6 mRNA expression in human SH-SY5Y cells at EC10 by qPCR method relative to beta-actin; format: functional
[11] = system: SH-SY5Y; assay: Effect on TNF mRNA expression in human SH-SY5Y cells at EC10 by qPCR method relative to beta-actin; format: functional
[12] = system: SH-SY5Y; assay: Effect on ICAM1 mRNA expression in human SH-SY5Y cells at EC10 by qPCR method relative to beta-actin; format: functional
[13] = system: SH-SY5Y; assay: Effect on VCAM1 mRNA expression in human SH-SY5Y cells at EC10 by qPCR method relative to beta-actin; format: functional
[14] = system: SH-SY5Y; assay: Effect on MMP9 mRNA expression in human SH-SY5Y cells at EC10 by qPCR method relative to beta-actin; format: functional
[15] = system: SH-SY5Y; assay: Effect on TNFRSF1A mRNA expression in human SH-SY5Y cells at EC10 by qPCR method relative to beta-actin; format: functional
[16] = system: SH-SY5Y; assay: Effect on ADCY5 mRNA expression in human SH-SY5Y cells at EC10 by qPCR method relative to beta-actin; format: functional
[17] = system: SH-SY5Y; assay: Effect on ADORA2A mRNA expression in human SH-SY5Y cells at EC10 by qPCR method relative to beta-actin; format: functional
[18] = system: SH-SY5Y; assay: Effect on GNAS mRNA expression in human SH-SY5Y cells at EC10 by qPCR method relative to beta-actin; format: functional
[19] = system: SH-SY5Y; assay: Effect on S1PR1 mRNA expression in human SH-SY5Y cells at EC10 by qPCR method relative to beta-actin; format: functional
[20] = system: SH-SY5Y; assay: Effect on DRD2 mRNA expression in human SH-SY5Y cells at EC10 by qPCR method relative to beta-actin; format: functional
[21] = system: U-118-MG; assay: Effect on PMP22 mRNA expression in human U118MG cells at EC10 by qPCR method relative to beta-actin; format: functional
[22] = system: U-118-MG; assay: Effect on IL10 mRNA expression in human U118MG cells at EC10 by qPCR method relative to beta-actin; format: functional
[23] = system: U-118-MG; assay: Effect on TNF mRNA expression in human U118MG cells at EC10 by qPCR method relative to beta-actin; format: functional
[24] = system: U-118-MG; assay: Effect on ICAM1 mRNA expression in human U118MG cells at EC10 by qPCR method relative to beta-actin; format: functional
[25] = system: U-118-MG; assay: Effect on VCAM1 mRNA expression in human U118MG cells at EC10 by qPCR method relative to beta-actin; format: functional
[26] = system: U-118-MG; assay: Effect on MMP9 mRNA expression in human U118MG cells at EC10 by qPCR method relative to beta-actin; format: functional
[27] = system: U-118-MG; assay: Effect on NFKB1 mRNA expression in human U118MG cells at EC10 by qPCR method relative to beta-actin; format: functional
[28] = system: U-118-MG; assay: Effect on ADORA2A mRNA expression in human U118MG cells at EC10 by qPCR method relative to beta-actin; format: functional
[29] = system: U-118-MG; assay: Effect on GNAS mRNA expression in human U118MG cells at EC10 by qPCR method relative to beta-actin; format: functional
[30] = system: U-118-MG; assay: Effect on S1PR1 mRNA expression in human U118MG cells at EC10 by qPCR method relative to beta-actin; format: functional
[31] = system: SK-N-SH; assay: Effect on PMP22 mRNA expression in human SK-N-SH cells at EC10 by qPCR method relative to beta-actin; format: functional
[32] = system: SK-N-SH; assay: Effect on CCL2 mRNA expression in human SK-N-SH cells at EC10 by qPCR method relative to beta-actin; format: functional
[33] = system: SK-N-SH; assay: Effect on CXCL10 mRNA expression in human SK-N-SH cells at EC10 by qPCR method relative to beta-actin; format: functional
[34] = system: SK-N-SH; assay: Effect on IL10 mRNA expression in human SK-N-SH cells at EC10 by qPCR method relative to beta-actin; format: functional
[35] = system: SK-N-SH; assay: Effect on IL6 mRNA expression in human SK-N-SH cells at EC10 by qPCR method relative to beta-actin; format: functional
[36] = system: SK-N-SH; assay: Effect on TNF mRNA expression in human SK-N-SH cells at EC10 by qPCR method relative to beta-actin; format: functional
[37] = system: SK-N-SH; assay: Effect on EPHA1 mRNA expression in human SK-N-SH cells at EC10 by qPCR method relative to beta-actin; format: functional
[38] = system: SK-N-SH; assay: Effect on TNFRSF1A mRNA expression in human SK-N-SH cells at EC10 by qPCR method relative to beta-actin; format: functional
[39] = system: SK-N-SH; assay: Effect on NFKB1 mRNA expression in human SK-N-SH cells at EC10 by qPCR method relative to beta-actin; format: functional
[40] = system: SK-N-SH; assay: Effect on ADCY5 mRNA expression in human SK-N-SH cells at EC10 by qPCR method relative to beta-actin; format: functional
[41] = system: SK-N-SH; assay: Effect on ADORA2A mRNA expression in human SK-N-SH cells at EC10 by qPCR method relative to beta-actin; format: functional
[42] = system: SK-N-SH; assay: Effect on GNAS mRNA expression in human SK-N-SH cells at EC10 by qPCR method relative to beta-actin; format: functional
[43] = system: SK-N-SH; assay: Effect on S1PR1 mRNA expression in human SK-N-SH cells at EC10 by qPCR method relative to beta-actin; format: functional
[44] = system: SK-N-SH; assay: Effect on DRD2 mRNA expression in human SK-N-SH cells at EC10 by qPCR method relative to beta-actin; format: functional

CCCCCCCCc1ccc(CCC(N)(CO)CO)cc1 [FINGOLIMOD]
Activity [1]: Active | EC10 [2]: 0.54 µM | EC10 [3]: 0.55 µM | Activity [4]: Active | Activity [5]: Active | fold change (FC) [6]: -5.1694 | fold change (FC) [7]: -7.8218 | fold change (FC) [8]: -3.1821 | fold change (FC) [9]: -4.2501 | fold change (FC) [10]: -6.498 | fold change (FC) [11]: -15.9446 | fold change (FC) [12]: -6.0839 | fold change (FC) [13]: -4.9933 | fold change (FC) [14]: -6.6923 | fold change (FC) [15]: -10.091 | fold change (FC) [16]: -5.5117 | fold change (FC) [17]: -4.4924 | fold change (FC) [18]: -3.605 | fold change (FC) [19]: -8.6788 | fold change (FC) [20]: -9.8151 | fold change (FC) [21]: -5.8716 | fold change (FC) [22]: -2.5151 | fold change (FC) [23]: -5.8716 | fold change (FC) [24]: -6.8152 | fold change (FC) [25]: -4.7445 | fold change (FC) [26]: -6.3039 | fold change (FC) [27]: -3.1465 | fold change (FC) [28]: -4.9966 | fold change (FC) [29]: -2.939 | fold change (FC) [30]: -4.1044 | fold change (FC) [31]: -3.3914 | fold change (FC) [32]: -11.3481 | fold change (FC) [33]: -5.2302 | fold change (FC) [34]: -4.2704 | fold change (FC) [35]: -4.6974 | fold change (FC) [36]: -15.2356 | fold change (FC) [37]: -3.6983 | fold change (FC) [38]: -3.8155 | fold change (FC) [39]: -3.6601 | fold change (FC) [40]: -5.1851 | fold change (FC) [41]: -8.1222 | fold change (FC) [42]: -6.1024 | fold change (FC) [43]: -5.8741 | fold change (FC) [44]: -4.5217

CCCCCCCCn1nnnc1CCC(N)(CO)CO.Cl
Activity [1]: Active | EC10 [2]: 0.45 µM | EC10 [3]: 0.37 µM | Activity [4]: Active | Activity [5]: Active | fold change (FC) [6]: -3.5921 | fold change (FC) [7]: -3.0787 | fold change (FC) [8]: -3.4279 | fold change (FC) [9]: -7.3448 | fold change (FC) [10]: -4.4551 | fold change (FC) [11]: -3.2642 | fold change (FC) [12]: -7.3035 | fold change (FC) [13]: -5.2706 | fold change (FC) [14]: -5.7901 | fold change (FC) [15]: -6.2787 | fold change (FC) [16]: -5.9067 | fold change (FC) [17]: -6.5966 | fold change (FC) [18]: -8.1531 | fold change (FC) [19]: -4.2848 | fold change (FC) [20]: -3.3881 | fold change (FC) [21]: -5.1248 | fold change (FC) [22]: -2.5669 | fold change (FC) [23]: -5.8487 | fold change (FC) [24]: -5.127 | fold change (FC) [25]: -3.8654 | fold change (FC) [26]: -4.4691 | fold change (FC) [27]: -2.6004 | fold change (FC) [28]: -5.0641 | fold change (FC) [29]: -2.9212 | fold change (FC) [30]: -4.1312 | fold change (FC) [31]: -4.1464 | fold change (FC) [32]: -8.981 | fold change (FC) [33]: -4.7219 | fold change (FC) [34]: -7.7375 | fold change (FC) [35]: -11.9743 | fold change (FC) [36]: -7.8456 | fold change (FC) [37]: -7.9001 | fold change (FC) [38]: -3.6537 | fold change (FC) [39]: -6.9253 | fold change (FC) [40]: -4.4983 | fold change (FC) [41]: -5.915 | fold change (FC) [42]: -7.631 | fold change (FC) [43]: -4.3001 | fold change (FC) [44]: -3.8822
